The target of the test is T1, actin (F-actin) (Oryctolagus cuniculus, UniProt P68135).
T1 construct: gene ACTA1; Atto488-labeled F-actin from rabbit skeletal muscle
The test can be described thus: TIRF displacement of rhodamine-phalloidin from purified actin filaments; supported by pyrene, TIRF and FCS polymerization assays. In kind it is binding. The source says:
TIRF displacement of rhodamine-phalloidin from purified actin filaments; supported by pyrene, TIRF and FCS polymerization assays on actin (F-actin) | Rhodamine-labeled phalloidin could be displaced from actin filaments by MiuA in a concentration dependent manner

By IC50 is commonly meant the midpoint of a concentration-inhibition curve. Read a high IC50 as lower potency. In the case of `CO/C(=C1/NC(=O)C(Cc2ccc(O)c(Br)c2)N(C)C(=O)C(C)NC(=O)CCC/C=C(\C)CCC(C)OC1=O)c1ccccc1` (stereo not shown) [MiuA, Miuraenamide A], the IC50 was roughly 5 nM.

Source of the values: paper PMC6611809, “Actin stabilizing compounds show specific biological effects due to their binding mode” (Scientific Reports, 2019).
